CCCCN(CCCC)c1ccc(C(=O)c2ccccc2C(=O)O)c(O)c1
solubility (mole fraction)
Conditions	283.15 K	288.15 K	293.15 K	298.15 K	303.15 K	308.15 K	313.15 K	318.15 K	323.15 K
in acetone	0.015	0.0171	0.0196	0.0216	0.0251	0.0291	0.033	0.0386	0.0436
in acetonitrile	0.000701	0.000848	0.00113	0.00138	0.0018	0.00227	0.00284	0.00363	0.00444
in dichloromethane	0.0128	0.0141	0.0157	0.0183	0.0214	0.0251	–	–	–
in ethanol	0.00193	0.00252	0.00334	0.00422	0.00529	0.00641	0.0082	0.0102	0.013
in ethyl acetate	0.0043	0.00516	0.00606	0.00698	0.00782	0.009	0.00995	0.0112	0.0126
in isopropanol	0.00178	0.00232	0.00302	0.0039	0.00508	0.00667	0.00886	0.0117	0.0147
in isopropyl acetate	0.00415	0.00485	0.00544	0.00624	0.00715	0.00815	0.00901	0.00991	0.011
in methanol	0.00164	0.00194	0.00238	0.00292	0.0037	0.0047	0.00617	0.00811	0.0111
in n-butyl acetate	0.00418	0.00493	0.00556	0.00639	0.00727	0.00824	0.00952	0.0109	0.0123
in n-heptane	1.5e-05	1.8e-05	2.3e-05	2.7e-05	3.3e-05	3.8e-05	4.3e-05	4.8e-05	5.2e-05
in n-propanol	0.0165	0.0212	0.0258	0.0321	0.0399	0.0496	0.062	0.0773	0.0958
in n-propyl acetate	0.0037	0.00454	0.00547	0.00631	0.00738	0.00846	0.00983	0.0115	0.0129
